The values that follow come from article PMC11912728, “L-asparaginase from the novel Fusarium falciforme AUMC 16563: extraction, purification, characterization, and cytotoxic effects on PC-3, HePG-2, HCT-116, and MCF-7 cell lines” (BMC Microbiology, 2025).

The Km is the concentration of substrate that gives half-maximal velocity.

For the assay, the system named is T1, L-asparaginase (pure asparaginase) from Fusarium falciforme AUMC 16563.
T1 construct: native extracellular enzyme purified from culture supernatant (ethanol, DEAE-cellulose, Sephacryl S-200 HR)
Put plainly: Nesslerization (ammonia release, […] nm), Lineweaver-Burk. The following applies: substrate 2.0-20.0 mM; pH and temperature of the kinetic assay not given. The assay is classed as biochemical.
Turning to `NC(=O)C[C@H](N)C(=O)O` [L-asparagine], the Km is 0.0577 mM.

On to `NC(=O)CC[C@H](N)C(=O)O` [L-glutamine], for which the Km was 9.12 mM.

`N[C@@H](CCC(=O)O)C(=O)O` [glutamic acid]: the Michaelis-Menten constant (Km) turned out to be 12.2 mM. In the case of `N[C@@H](CC(=O)O)C(=O)O` [aspartic acid] it was 10.1 mM.
